Results on two molecules are retold here after ChEMBL document CHEMBL1158778, “Paecilosetin, a new bioactive fungal metabolite from a New Zealand isolate of Paecilomyces farinosus” (J Nat Prod, 2005).

In brackets after ≈: the same amount, converted by molar mass.

The subject of one test is Bacillus subtilis. Put plainly: Antimicrobial activity against Bacillus subtilis at 5 ug/disk by agar diffusion assay. In kind it is functional. Particulars: read-out: IZ. Background: A growth-free zone around the sample is the usual read-out of agar diffusion tests.
Another test concerns P388. Nature of the test: Cytotoxicity against mouse P388 cells by MTT assay. In kind it is functional, cell-based.
Test [1] concerns Trichophyton mentagrophytes. Nature of the test: Antimicrobial activity against Trichophyton mentagrophytes at 40 ug/disk by agar diffusion assay. Type of test: functional. Particulars: read-out: IZ.
The next test deals with Amorphotheca resinae. Put plainly: Antimicrobial activity against Cladosporium resinae at 40 ug/disk by agar diffusion assay. In kind it is functional. Particulars: read-out: IZ.

Turning to `C/C=C/[C@@H]1C=C[C@@H]2C[C@H](C)CC[C@H]2[C@]1(C)/C(O)=C1\C(=O)N[C@@H](C(C)O)C1=O` (stereo not given in full) [PAECILOSETIN], the zone of inhibition at 5 µg/disc in the test on Bacillus subtilis turned out to be 3 mm. Besides, in the test on P388, the IC50 amounted to 3.2 µg/mL (≈ 8.57 µM). The figures for the zone of inhibition at 40 µg/disc (in test [1]; in the test with Amorphotheca resinae) were 3 mm and 1 mm, respectively.
On to `CCC(C)/C=C(C)/C=C/C=C/C=C/C(=O)c1c(O)c(-c2ccc(O)cc2)cn(O)c1=O` (stereo not given) [FARINOSONE B], for which the 50% inhibitory concentration (IC50) in the test with P388 came out at 1.1 µg/mL (≈ 2.61 µM).

As usually defined, the IC50 is the concentration that inhibits the measured activity by half. Low readings indicate greater potency in that assay, high ones weaker potency in that assay.
